Read-outs that look alike come from different tables or passages of the source.
What was measured:
GST A3-3 [1] = biological target: T1, GST A3-3 (Homo sapiens, UniProt Q16772); experiment: biochemical
T1 sequence (Q16772 1-222): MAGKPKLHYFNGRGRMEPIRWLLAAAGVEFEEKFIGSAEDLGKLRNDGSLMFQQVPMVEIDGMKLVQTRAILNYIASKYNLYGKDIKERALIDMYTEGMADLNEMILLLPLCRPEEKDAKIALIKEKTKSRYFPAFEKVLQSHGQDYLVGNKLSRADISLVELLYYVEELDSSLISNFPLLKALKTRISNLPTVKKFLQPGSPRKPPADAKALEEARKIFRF

GST A1-1 [2] = biological target: T2, GST A1-1 (Homo sapiens, UniProt P08263); experiment: biochemical
T2 sequence (P08263 1-222): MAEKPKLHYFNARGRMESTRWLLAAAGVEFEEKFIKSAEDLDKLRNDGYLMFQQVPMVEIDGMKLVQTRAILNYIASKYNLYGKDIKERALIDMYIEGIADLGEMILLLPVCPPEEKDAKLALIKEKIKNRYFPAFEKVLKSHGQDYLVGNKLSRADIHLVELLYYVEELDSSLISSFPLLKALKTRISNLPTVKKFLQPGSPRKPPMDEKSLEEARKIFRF

GST A2-2 [3] = biological target: T3, GST A2-2 (Homo sapiens, UniProt P09210); experiment: biochemical
T3 sequence (P09210 1-222): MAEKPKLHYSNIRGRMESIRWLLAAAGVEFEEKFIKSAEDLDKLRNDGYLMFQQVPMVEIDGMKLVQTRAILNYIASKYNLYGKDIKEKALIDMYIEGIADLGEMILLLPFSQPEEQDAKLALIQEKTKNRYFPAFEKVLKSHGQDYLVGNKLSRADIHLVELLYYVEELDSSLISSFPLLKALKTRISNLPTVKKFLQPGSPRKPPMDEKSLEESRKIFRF

GST A2-2 [4] = biological target: T3, GST A2-2; conditions: read-out: IC50 Values GST A2-2
GST A3-3 [5] = biological target: T1, GST A3-3; conditions: read-out: IC50 Values GST A3-3
GST A1-1 [6] = biological target: T2, GST A1-1; conditions: read-out: IC50 Values GST A1-1

Compound	IC50 (GST A3-3 [1]) [nM]	IC50 (GST A1-1 [2]) [nM]	IC50 (GST A2-2 [3]) [nM]	IC50 (GST A2-2 [4]) [nM]	IC50 (GST A3-3 [5]) [nM]	IC50 (GST A1-1 [6]) [nM]
C[CH2][Ge]([Cl])([CH2]C)[CH2]C [Et3GeCl]	67000	56000	800	–	–	–
[Cl][Pb]([c]1ccccc1)([c]1ccccc1)[c]1ccccc1 [Ph3PbCl]	13	4.6	84	–	–	–
[Br][Pb]([c]1ccccc1)([c]1ccccc1)[c]1ccccc1 [Ph3PbBr]	160	8.6	–	–	–	–
CCC[CH2][Sn]([CH2]CCC)([CH2]CCC)[O]C(C)=O [Bu3SnAc]	–	–	–	410	18	18
CC(=O)[O][Sn]([c]1ccccc1)([c]1ccccc1)[c]1ccccc1 [Ph3SnAc]	–	–	–	–	160	160
C[CH2][Pb]([Cl])([CH2]C)[CH2]C [Et3PbCl]	2300	2000	–	–	–	–

Source: US20060148020A1, “Inhibitors of gst a3-3 and gst a1-1 for the treatment of cancer” (priority 2002, published 2006)
